{"source": "patent US11555014B2", "about": "“High penetration prodrug compositions of prostaglandins and related compounds” (Techfields Pharma Co., Ltd., priority 2006, dated 2023)", "key": {"[1]": {"details": "pH 7.4", "experimental": "(§1) The penetration rates of HPPs and their parent drugs through human skin were measured in vitro by modified Franz cells. The Franz cells have two chambers, the top sample chamber and the bottom receiving chamber. The human skin tissue (360-400 μm thick) that separates the top and the receiving chambers was isolated from the anterior or posterior thigh areas.\n(§2) The compound tested (2 mL, 20% in 0.2 M phosphate buffer, pH. 7.4) were added to the sample chamber of a Franz cell. The receiving chamber contains 10 ml of 2% bovine serum albumin in saline which was stirred at 600 rpm. The cumulative amounts of the tested compounds penetrating the skin versus time were determined by high-performance liquid chromatography (HPLC) method."}, "Solubility in water": {"assay": "Solubility in water", "assay_type": "physicochemical", "method": "37.7 g (0.1 mol) of sodium 11,15-dihydroxy-9-oxoprost-13-en-1-oate was dissolved in 100 ml of acetonitrile. 26.1 g (0.1 mol) of 2-Bromo-N,N-diethylethylamine.HBr and 8.6 g of sodium bicarbonate were added into the reaction mixture. The mixture was stirred for overnight at RT. The solvents were evaporated off. 250 ml of ethyl acetate was added into the reaction mixture and the mixture was washed with water (3×100 ml). The organic solution was dried over anhydrous sodium sulfate. Sodium sulfate was removed by filtration. 6 g of acetic acid was added into the reaction mixture with stirring. Hexane (200 ml) was added. The solid product was collected by filtration. After drying, it yielded 42 g of the desired product (81.8%). Hygroscopic product; Solubility in water: 100 mg/ml; Elementary analysis: C28H51NO7; MW: 513.37. Calculated % C, 65.47; H, 10.01; N, 2.73; O, 21.80. Found % C, 65.42; H, 10.03; N, 2.70; O, 21.85.\n43.7 g (0.1 mol) of 11,15-diacetoxy-9-oxoprosta-5,13-dien-1-oic acid was dissolved in 300 ml of chloroform. 20.6 g of N,N′-Dicyclohexylcarbodiimide was added into the reaction mixture. 11.7 g of N,N-diethylaminoethylamine was added into the reaction mixture. The mixture was stirred for 3 hours at RT. The solid was removed by filtration. The chloroform solution was washed with 5% NaHCO3 (2×100 ml) and water (3×100 ml). The organic solution was dried over anhydrous sodium sulfate. Sodium sulfate was removed by filtration. 6 g of acetic acid was added into the reaction mixture with stirring. Hexane (200 ml) was added. The solid product was collected by filtration. After drying, it yielded 45 g of the desired product (85.8%). Hygroscopic product; Solubility in water: 100 mg/ml; Elementary analysis: C34H59NO9S; MW: 657.90. Calculated % C, 62.07; H, 9.04; N, 2.13; O, 21.89; S, 4.87. Found % C, 62.02; H, 9.06; N, 2.11; O, 21.95; S, 4.86.\n49.9 g (0.1 mol) of 9,11,15-triacetoxyprost-13-en-1-oic acid was dissolved in 300 ml of chloroform. 20.6 g of N,N′-Dicyclohexylcarbodiimide was added into the reaction mixture. 13.1 g of dimethylaminoethyl mercaptan was added into the reaction mixture. The mixture was stirred for 3 hours at RT. The solid was removed by filtration. The chloroform solution was washed with 5% NaHCO3 (2×100 ml) and water (3×100 ml). The organic solution was dried over anhydrous sodium sulfate. Sodium sulfate was removed by filtration. 6 g of acetic acid was added into the reaction mixture with stirring. Hexane (200 ml) was added. The solid product was collected by filtration. After drying, it yielded 45 g of the desired product (85.8%). Hygroscopic product; Solubility in water: 100 mg/ml; Elementary analysis: C32H53NO9; MW: […] Calculated % C, 64.51; H, 8.97; N, 2.35; O, 24.17. Found % C, 64.47; H, 8.99; N, 2.34; O, 24.20.\n37.7 g (0.1 mol) of sodium 9,11,15-trihydroxyprosta-5,13-dien-1-oate was dissolved in 100 ml of acetonitrile. 39 g (0.15 mol) of 2-Bromo-N,N-diethylethylamine.HBr in ethyl acetate was added into the reaction mixture. The mixture was stirred for 3 h at RT. Then 8 g of sodium bicarbonate was added into the reaction mixture. The mixture is stirred for another 2 h at RT. The solvents were evaporated off. 250 ml of ethyl acetate was added into the reaction mixture and the mixture was washed with water (3×100 ml). The organic solution was dried over anhydrous sodium sulfate. Sodium sulfate was removed by filtration. 6 g of acetic acid was added into the reaction mixture with stirring. […] Calculated % C, 65.47; H, 10.01; N, 2.73; O, 21.80. […]"}, "rabbit eye": {"tested_on": "rabbit eye", "assay": "Conjunctival hyperemia in the rabbit eye after topical application", "assay_type": "in vivo", "details": "dose 0.001% topical, first 2 hours, scale 0 (no hyperemia) to 4 (marked hyperemia with conjunctive chemosis)", "method": "Conjunctival hyperemia in the rabbit eye of naturally occurring and modified prostaglandins and their novel prodrugs was evaluated during the first 2 hours after topical application of the respective test drug. The conjunctival hyperemia was graded on a scale from 0 to 4, 0 indicating complete absence of any hyperemia, and 4 indicating marked hyperemia with conjunctive chemosis."}, "cat eye": {"tested_on": "cat eye", "assay": "Irritative effect or ocular discomfort in the cat eye after topical application", "assay_type": "in vivo", "details": "dose 0.001% topical, first 2 hours, scale 0 (no discomfort) to 4 (maximal irritation, complete lid closure)", "method": "Irritative effect or ocular discomfort in the cat eye of naturally occurring and modified prostaglandins and their novel prodrugs were evaluated during the first hours after the topical application of the respective test drug. The ocular discomfort was graded on a scale from 0 to 4, 0 indicating complete absence of any signs of discomfort, and 4 indicating maximal irritation as obvious from complete lid closure."}, "[2]": {"tested_on": "cats with ocular hypertension", "assay": "Intraocular pressure (IOP) reduction in cats with ocular hypertension produced by laser trabeculoplasty", "assay_type": "in vivo, cat", "method": "The ability of certain compounds of the present invention to reduce intraocular pressure (IOP) was evaluated in cats with ocular hypertension produced by previously done laser trabeculoplastry. IOP was determined with a pneumatonometer after light corneal anesthesia with dilute proparacaine. Baseline IOP was determined prior to treatment with the test compound aqueous solution. 6 divided doses were administered over a period of 3 days (once every 12 hours). IOP was determined 24 hours after the initial dose and then once every 12 hours. The therapeutically efficient amount is typically between 0.001 and 0.01% in pH 7.2 phosphate buffer (0.1 M). The treatment was carried out in that one drop (about 30 micro liter) of the composition. The results of N,N-diethylaminoethyl 11,15-dihydroxy-9-oxoprost-13-en-1-oate.AcOH (A), N,N-diethylaminoethyl 11,15-dihydroxyl-9-oxoprosta-5,13-dien-1-oate.AcOH (B), N,N-diethylaminoethyl 9,11,15-trihydroxyprosta-5,13-dien-1-oate.AcOH(C), N,N-diethylaminoethyl 9,11-dihydroxy-15-keto-20-ethylprost-5,13-dien-1-oate.AcOH (9,11-dihydroxy-15-keto-20-ethylprostaglandin F2α N,N-diethylaminoethyl ester) (D), N,N-diethylaminoethyl (Z)-7-{(1R,2R,3R,5S)-3,5-dihydroxy-2-[(1E,3R)-3-hydroxy-4-[(α,α,α-trifluoro-m-tolyl)oxy]-1-butenyl]cyclopentyl}-5-heptenoate.AcOH (E), N,N-diethylaminoethyl (Z)-7{(1R,2R,3R,5S)-3,5-dihydroxy-2-[(3R)-3-hydroxy-5-phenylpentyl]cyclopentyl}-5-heptenoate.AcOH (F), and N,N-diethylaminoethyl (Z)-7-{(1R,2R,3R,5S)-3,5-Dihydroxy-2-[(1E,3S)-3-hydroxy-5-phenyl-1-pentenyl]cyclopentyl}-heptenoate.AcOH (G) are shown in Table 2."}, "[3]": {"assay": "In vitro penetration rate across isolated human skin in modified Franz cells", "details": "10% solution in pH 7.4 phosphate buffer (0.2 M), n=5", "experimental": "as §1, §2"}, "rats": {"tested_on": "rats", "assay": "Sexual behaviour (solicitation, copulation) of rats after application to genital area", "assay_type": "in vivo, rat", "method": "The HPP of the invention can diffuse through human skin in very high rate (˜1 mg/h/cm^2) and can provide almost side-effects-free methods of treating erectile dysfunction or enhancing female sexual arousal. About 0.01 ml of 0.0005% [˜0.05 μg (microgram)] N,N-diethylaminoethyl 11,15-dihydroxy-9-oxoprost-13-en-1-oate.AcOH in pH 7.0 phosphate buffer (0.1 M) was applied to genital area of male rats (30 rats) once per day for 5 days.\nWhen same amount of N,N-diethylaminoethyl 11,15-dihydroxy-9-oxoprost-13-en-1-oate.AcOH in pH 7.0 phosphate buffer (0.1 M) were applied to genital area of both male rats (30 rats) and female rats (30 rates) once per day for 5 days."}, "[4]": {"details": "Milosovich et al., J. Pharm. Sci., 82, 227 (1993); cited from earlier work"}, "[5]": {"details": "dose 0.001%, one drop topical every 12 hours, 6 doses"}, "[6]": {"details": "about 0.01 ml of 0.0005% (~0.05 μg) applied to genital area of male rats once per day for 5 days"}, "[7]": {"details": "same amount applied to genital area of both male and female rats once per day for 5 days"}}, "note": "Read-outs that look alike come from different tables or passages of the source.", "data": [{"compound": "CC(=O)O.CCCCCC(C)(O)C=C[C@H]1C(O)CC(O)[C@@H]1CC=CCCCC(=O)OCCN(CC)CC", "note": "(stereo partly shown) [N,N-diethylaminoethyl 9,11,15-trihydroxy-15-methylprosta-5,13-dien-1-oate.AcOH]", "values": [{"measurement": "In vitro penetration rate (apparent flux), prodrug compounds", "setting": "[1]", "result": 0.80, "unit": "mg/cm^2/h"}, {"measurement": "Solubility in water", "setting": "Solubility in water", "result": 100, "unit": "mg/mL"}]}, {"compound": "CC(=O)O.CCCCCC(O)C=C[C@H]1C(O)CC(O)[C@@H]1CC=CCCCC(=O)OCCN(CC)CC", "note": "(stereo partly shown) [N,N-diethylaminoethyl 9,11,15-trihydroxyprosta-5,13-dien-1-oate.AcOH]", "values": [{"measurement": "Degree of irritative effect (conjunctival hyperemia)", "setting": "rabbit eye", "result": 1}, {"measurement": "Degree of irritative effect", "setting": "cat eye", "result": 1}, {"measurement": "Intraocular pressure, 24 hours after administration", "setting": "[2]; [5]", "result": "15.5 ± 0.5"}, {"measurement": "Intraocular pressure, 36 hours after administration", "setting": "[2]; [5]", "result": "15.6 ± 0.6"}, {"measurement": "Intraocular pressure, 48 hours after administration", "setting": "[2]; [5]", "result": "15.7 ± 0.5"}, {"measurement": "Intraocular pressure, 60 hours after administration", "setting": "[2]; [5]", "result": "15.6 ± 0.7"}, {"measurement": "Intraocular pressure, 72 hours after administration", "setting": "[2]; [5]", "result": "15.5 ± 0.6"}, {"measurement": "Intraocular pressure, baseline", "setting": "[2]; prior to treatment, group dosed 0.001%", "result": "22.5 ± 0.7"}, {"measurement": "Solubility in water", "setting": "Solubility in water", "result": 100, "unit": "mg/mL"}, {"measurement": "In vitro penetration rate (apparent flux), prodrug compounds", "setting": "[3]", "result": 0.94, "unit": "mg/cm^2/h"}]}, {"compound": "CC(=O)O.CCCCCC(O)C=CC1C(O)CC(=O)C1CCCCCCC(=O)OCCN(CC)CC", "note": "(stereo not shown) [N,N-diethylaminoethyl 11,15-dihydroxy-9-oxoprost-13-en-1-oate.AcOH]", "values": [{"measurement": "Solubility in water", "setting": "Solubility in water", "result": 100, "unit": "mg/mL"}, {"measurement": "Increase in copulation compared to rats not given the drug", "setting": "rats; [6]", "result": 4, "unit": "fold"}, {"measurement": "Increase in solicitation compared to rats not given the drug", "setting": "rats; [6]", "result": 6, "unit": "fold"}, {"measurement": "Discomfort of treated rats", "setting": "rats; applied to genital area of rats once per day for 5 days", "result": "did not show any discomfort"}, {"measurement": "Increase in copulation compared to rats not given the drug", "setting": "rats; [7]", "result": 6, "unit": "fold"}, {"measurement": "Increase in solicitation compared to rats not given the drug", "setting": "rats; [7]", "result": 6, "unit": "fold"}, {"measurement": "In vitro penetration rate (apparent flux), prodrug compounds", "setting": "[3]", "result": 1.01, "unit": "mg/cm^2/h"}]}, {"compound": "CC(=O)O.CCCCCC(C=C[C@H]1C(OC(C)=O)CC(OC(C)=O)[C@@H]1CCCCCCC(=O)SCCN(C)C)OC(C)=O", "note": "(stereo partly shown) [S—(N,N-dimethylaminoethyl) 9,11,15-triacetoxythioprost-13-en-1-oate.AcOH]", "values": [{"measurement": "Solubility in water", "setting": "Solubility in water", "result": 100, "unit": "mg/mL"}]}, {"compound": "CN(C)CCCC(=O)O[C@H]1CC[C@H]2[C@@H]3CCC4=CC(=O)CC[C@]4(C)[C@H]3CC[C@]12C.Cl", "note": "[TSBH, testosteronyl-4-dimethylaminobutyrate.HCl]", "values": [{"measurement": "Diffusion through human skin, times faster than the parent drug (TS)", "setting": "[4]", "result": "about 60 times"}]}, {"compound": "N,N-diethylaminoethyl 11,15-diacetoxy-9-oxoprosta-5,13-dien-1-oamide.AcOH", "values": [{"measurement": "Solubility in water", "setting": "Solubility in water", "result": 100, "unit": "mg/mL"}]}]}
